{"source": "patent US20250380701A1", "about": "“HERBICIDAL COMBINATIONS AND A METHOD FOR CONTROLLING UNDESIRED VEGETATION” (UPL Mauritius Limited, priority 2022, published 2025)", "system": "weedy Glycine max", "assay": "Post-emergence herbicidal activity trial, efficacy on weedy Glycine max (Colby evaluation)", "assay_type": "in vivo", "description": "The following products were used for testing the weed control efficacy of present herbicidal combinations.\nMethodology: Trials were carried out to evaluate the efficacy of the combination of L-glufosinate ammonium (glufosinate-P-ammonium) and the additional herbicides on weedy Glycine max.\nThe soil used was sandy clay loam-sand: 68.0%; silt: 8.0%; clay: 24.0%.\nAll treatments were in 3 replications per treatment with a spray volume of about 150 L/ha.\nThe expected efficacy of a combination of L-glufosinate and the other herbicides was calculated using the well-established Colby method. Any difference between the observed and “expected” efficacy could be attributed to synergy between the two compounds.\nIn the Colby method, the expected (or predicted) response of a combination of herbicides is calculated by taking the product of the observed response for each individual component of the combination when applied alone, divided by 100, and subtracting this value from the sum of the observed response for each component when applied alone. An unexpected enhancement in efficacy of the combination is then determined by comparing the observed response of the combination to the expected (or predicted) response as calculated from the observed response of each individual component alone. If the observed response of the combination is greater than the expected (or predicted) response, or stated conversely, if the difference between the observed and expected response is greater than zero, then the combination is said to be synergistic or unexpectedly effective (Colby, S. R., Weeds, 1967(15), p. 20-22). The Colby method requires only a single dose of each herbicide applied alone and the mixture of both doses. The formula used to calculate the expected efficacy (EE) which was compared with the observed efficacy (OE) to determine the efficacy of the present disclosure is explained hereinbelow:\nThe expected efficacy for a combination of two active ingredients is as follows:\nwherein, • A=Observed efficacy of active ingredient A at the same concentration as used in the mixture. • B=Observed efficacy of the active ingredient B at the same concentration as used in the mixture. • C=Observed efficacy of the active ingredient C at the same concentration as used in the mixture.\nExperiments were conducted to assess the efficacy of the herbicidal combination comprising L-glufosinate ammonium and quizalofop-ethyl to control weedy Glycine max.\nThe percentage efficacy was calculated after 3, 28 and 35 days of applications (DAA). The target weed was Glycine max, and the concentration of the herbicide and the results are recorded in Table 2.\nExperiments were conducted to assess the efficacy of the herbicidal combination comprising L-glufosinate ammonium and quizalofop-p-tefuryl to control the weedy Glycine max\nThe percentage efficacy was calculated after 3, 28 and 35 days of applications (DAA). The target weed was weedy Glycine max, and the concentration of the herbicide and the results are recorded in Table 3.", "data": [{"smiles": "CP(=O)(O)CC[C@H](N)C(=O)O.N", "note": "[L-glufosinate ammonium]", "values": [{"measurement": "Observed efficacy (%) of L-glufosinate ammonium (150 g a.i./ha)", "setting": "Example 1 (Table 2), 3 DAA", "result": 50, "unit": "%"}, {"measurement": "Observed efficacy (%) of L-glufosinate ammonium (150 g a.i./ha)", "setting": "Example 1 (Table 2), 28 DAA", "result": 40, "unit": "%"}, {"measurement": "Observed efficacy (%) of L-glufosinate ammonium (150 g a.i./ha)", "setting": "Example 1 (Table 2), 35 DAA", "result": 40, "unit": "%"}, {"measurement": "Observed efficacy (%) of L-glufosinate ammonium (150 g a.i./ha)", "setting": "Example 2 (Table 3), 3 DAA", "result": 50, "unit": "%"}, {"measurement": "Observed efficacy (%) of L-glufosinate ammonium (150 g a.i./ha)", "setting": "Example 2 (Table 3), 28 DAA", "result": 60, "unit": "%"}, {"measurement": "Observed efficacy (%) of L-glufosinate ammonium (150 g a.i./ha)", "setting": "Example 2 (Table 3), 35 DAA", "result": 55, "unit": "%"}]}, {"smiles": "C[C@@H](Oc1ccc(Oc2cnc3cc(Cl)ccc3n2)cc1)C(=O)OCC1CCCO1", "note": "(stereo partly drawn) [quizalofop-p-tefuryl, Quizalofop-p-tefuryl]", "values": [{"measurement": "Observed efficacy (%) of quizalofop-p-tefuryl (25 g a.i./ha)", "setting": "Example 2 (Table 3), 3 DAA", "result": 0, "unit": "%"}, {"measurement": "Observed efficacy (%) of quizalofop-p-tefuryl (25 g a.i./ha)", "setting": "Example 2 (Table 3), 28 DAA", "result": 0, "unit": "%"}, {"measurement": "Observed efficacy (%) of quizalofop-p-tefuryl (25 g a.i./ha)", "setting": "Example 2 (Table 3), 35 DAA", "result": 0, "unit": "%"}]}, {"smiles": "CCOC(=O)C(C)Oc1ccc(Oc2cnc3cc(Cl)ccc3n2)cc1", "note": "(stereo not drawn) [quizalofop-ethyl, Quizalofop-ethyl]", "values": [{"measurement": "Observed efficacy (%) of quizalofop-ethyl (25 g a.i./ha)", "setting": "Example 1 (Table 2), 3 DAA", "result": 0, "unit": "%"}, {"measurement": "Observed efficacy (%) of quizalofop-ethyl (25 g a.i./ha)", "setting": "Example 1 (Table 2), 28 DAA", "result": 0, "unit": "%"}, {"measurement": "Observed efficacy (%) of quizalofop-ethyl (25 g a.i./ha)", "setting": "Example 1 (Table 2), 35 DAA", "result": 0, "unit": "%"}]}]}
